What all share (test): NCI tumour cell line growth inhibition, 48 h
Assay [1] relates to HOP-18 NSCLC.
Assay [2] relates to M19-MEL melanoma.
The test system of assay [3] is KM20L2 colon.
For assay [4], the system named is DMS 114 small cell lung.
Assay [5] concerns LXFL 529 NSCLC.
Assay [6] concerns XF 498 CNS.
For assay [7], the system named is DMS 273 small cell lung.
Assay [8] deals with DLD-1 colon.
Assay [9] has as its system RXF-631 renal.

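Tested at 5 concentrations; 48 h exposure; 96-well plates; endpoints linearly interpolated, else capped at highest concentration. TGI marks complete inhibition of growth.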

`O=C1C2CN(Cc3ccccc3)CC1CN(CC1CC1)C2`: the TGI in assay [1], in assay [2], in assay [3], in assay [4], in [5] and in assay [6] was greater than 100 µM each time. Further, the TGI in assay [7] is greater than 100 µM.

Take `CN1Cc2cc3c(cc2-c2ccccc21)OCO3`: the TGI in [1], in [2], in assay [3], in assay [5], in assay [8] and in assay [6] was greater than 100 µM each time. Further, in assay [7], the TGI was greater than 100 µM.

Turning to `COc1c(C)cc2c(c1O)C1NC(C2)[C@H](O)N2C3COC(=O)[C@@]4(CS[C@@H](c5c(OC(C)=O)c(C)c6c(c53)OCO6)C12)NCCC1=C4NC2C=CC=CC12` (stereo not given in full), the TGI in assay [2] is less than 0.01 µM; in assay [3] it was less than 0.01 µM; in assay [4], less than 0.01 µM; in assay [5], 0.0117 µM; in assay [8], 0.0498 µM; in assay [9], 0.167 µM. This compound displayed a TGI in [7] of less than 0.01 µM.

As to `O=[N+]([O-])c1c(C=Nc2ccccc2)oc(-c2ccc3c(c2)OCO3)c1-c1ccc2c(c1)OCO2`, the TGI in assay [2], in [3], in [4], in assay [5], in assay [8] and in assay [9] was greater than 100 µM in each case. The TGI in assay [6] and in assay [7] was greater than 100 µM each time.

As to `CCOP(=O)(OCC)C(C(=O)OC)C(=O)C(=O)Nc1c(C)cc(Br)cc1C` (stereo not given), the TGI in assay [1], in assay [2], in assay [3], in assay [4], in assay [5] and in assay [8] was greater than 100 µM throughout. For the same compound, the TGI in [9], in [6] and in assay [7] was greater than 100 µM each time.

With `CCCCCCCC(=O)OCC1OC(OC)C(NC(=O)N(CCCl)N=O)C(O)C1O` (stereo not given), the TGI in [1] is 72.3 µM; in assay [2], 49.2 µM; in assay [3] it was greater than 59.2 µM; in assay [4], 29.6 µM; in assay [5] it was 42 µM; in [8] it was 28.6 µM. Moreover, the TGI was 19 µM in [9], 30.6 µM in assay [6] and 15.9 µM in assay [7].

As to `CC(C)N1CN(C(C(=O)N[C@@H]2C(=O)N3C2SC(C)(C)C3C(=O)O)c2ccc(O)cc2)CSC1=S` (stereo not given in full), the TGI in assay [1], in assay [2], in [3], in [4], in assay [5] and in assay [8] was greater than 100 µM in each case. Also, the TGI in assay [6] and in assay [7] was greater than 100 µM each time.

For `O=c1[nH]cnc2c1CCCN2`, the TGI in assay [1], in assay [2], in [3], in [4], in [5] and in [8] was greater than 100 µM throughout.

For `CCOc1ccc(NC(=O)C2=C(C)NC(C)=C(C(=O)Nc3ccc(OCC)cc3)C2c2ccccc2)cc1`, the TGI in assay [2], in assay [3], in [4], in [5], in [8] and in [9] was greater than 100 µM in each case. For the same compound, the TGI in [6] and in assay [7] was greater than 100 µM in each case.

For the compound `COc1cc(/C=C2\C(=O)N(C(=O)c3ccc(NC(C)=O)cc3)N=C2C)ccc1O`, the TGI in assay [1], in assay [2], in assay [4], in assay [8] and in assay [7] was greater than 100 µM in each case.

Consider `CN(Cc1ccccc1)C(=NC#N)N(C)Cc1ccccc1`, for which the TGI in assay [2], in assay [3], in [5], in [8] and in assay [7] was greater than 100 µM each time.

With `COc1cc(/C=C\c2cccnc2)cc(OC)c1OC`, the TGI in [1], in assay [2], in assay [3], in [4], in [5] and in assay [8] was greater than 100 µM in each case. The TGI in assay [6] and in assay [7] was greater than 100 µM in each case.

In the case of `Brc1cc2c(cc1C1SCCS1)OCO2`, the TGI in [1], in assay [3], in assay [4], in assay [5], in assay [8] and in assay [9] was greater than 100 µM in each case. For the same compound, the TGI in assay [7] was greater than 100 µM.

For `COc1ccccc1/C=C1\CCC(CCN2CCOCC2)C1=O` (stereo not given), the TGI in [1], in assay [2], in assay [3], in assay [4], in [5] and in assay [8] was greater than 100 µM in each case. Besides, the TGI in assay [9], in [6] and in assay [7] was greater than 100 µM in each case.

Turning to `Cc1ccc(C(=O)OCC(C)C)cc1N=NN(C)C`, the TGI in assay [2], in assay [3], in [5], in assay [8] and in assay [7] was greater than 100 µM throughout.

Regarding `Cc1nc2ccccc2c(=O)n1NC(=S)Nc1ccc(Cl)cc1[N+](=O)[O-]`, the TGI in assay [2], in [3], in assay [4] and in assay [5] was greater than 100 µM throughout.

Take `COc1ccc(C=C(c2ccc(OCc3ccccc3)cc2)c2ccc(OCc3ccccc3)cc2)cc1`: the TGI in assay [1], in assay [2], in [3], in [4], in [5] and in assay [8] was greater than 100 µM in each case. The TGI in assay [9], in assay [6] and in assay [7] was greater than 100 µM each time.

Turning to `COc1ccc2[nH]cc(CCNC(=O)[C@](O)(Cc3cn(C)c4ccccc34)[C@@]3(O)OCC(O)C3O)c2c1` (stereo not given in full), the TGI in assay [1], in assay [2], in assay [3], in [4], in assay [5] and in assay [8] was greater than 100 µM each time. Further, the TGI in assay [9], in [6] and in assay [7] was greater than 100 µM throughout.

The values above are taken from PubChem BioAssay (NCI).
